# Patent US8778886B2, “Methods of making and using a cell penetrating peptide for enhanced delivery of nucleic acids, proteins, drugs, and adenovirus to tissues and cells, and compositions and kits” (Tufts University, priority 2007, dated 2014)
# Tests used:
# HER cells [1] = experiment: C-POD delivery of siRNA, silencing of GFP expression; type: cell-based, human; details: pEGFP delivered by C-POD, no siRNA
# Description: pCAGRFP was compacted with C-POD at a ratio of 400 peptide/plasmid molecules. Briefly, 2 μg of DNA and the appropriate concentration of peptide were each suspended in 15 μL of either 100 μM sodium phosphate or 5% dextrose buffer. The peptide and DNA solutions were mixed and incubated for 30 minutes at room temperature prior to addition to HER cells. After 48 hours, cells were resuspended in PBS for FACS analysis. For electron microscopy, peptide/DNA complexes were prepared as above. Particles were bound to glow-discharged copper grids, stained with urinyl acetate, and visualized on a CMIO Transmission Electron Microscope (Philips) using Digital Micrograph software (Gatan, Inc). C-POD was used to compact both pd2-EGFP-NI and GFP Duplex I at concentrations of 450 particles/DNA molecule and 25 particles/duplex molecule, respectively, in 100 mM sodium phosphate buffer using the same procedures described above. Compacted pd2-EGFP-NI DNA, 2 μg, and 70 pmoles of GFP Duplex I diluted in DMEM+2% FBS were added simultaneously to HER cells for 4 hours. Growing medium was then added to cells and the incubation continued for 44 additional hours. […] The amount of fluorescence resulting from the Qdot-peptide complex was determined using a fluorometer and an equivalent amount of unbound Strep-Qdot was added separately as control. […] Uptake of Qdots was determined by fluorescent microscopy as described above. […]
# E. coli = experiment: Microbicidal activity, colony count after plating; type: cell-based; details: 2 hours at 37° C., plating on LB agar
# Description: Lissamine conjugated POD (L-POD) and either heparan sulfate or chondroitan sulfate were incubated together at each of molar ratios of 1:3.33, 1:6.67, and 1:8 in water for 30 minutes at room temperature. The complex was diluted in DMEM+2% FBS and added to 0.2×]06 HER cells for 5 minutes at 37° C. Following incubation, cells were trypsinized and suspended in PBS for FACS analysis as described above. To measure microbicidal activity of C-POD, XL-1 Blue cells (Stratagene, La Jolla, Calif.) were grown to mid logarithmic phase (OD600=0.600) and washed twice in a solution of 10 mM Tris, pH 7.4 and 5 mM Glucose. The cells were resuspended in 10 mL of the same solution and […] of the suspension was incubated with C-POD in a final volume of 50 μL. The peptide/bacteria cell solution was rocked for 2 hours at 37° C. The peptide-treated bacteria was diluted 1:4500 with LB broth, plated on agar, and grown overnight at 37° C. The following day, the bacterial colonies on each plate were counted to quantify peptide-related reduction in growth.
# Since endophthalmitis, an infection within the eye, is regularly a complicating factor in drug delivery to ocular tissues [Ho J et al. 2007 Int Opthalmol Clin 47: 199-208], C-POD was examined for potential microbicidal activities. E. coli cells grown to mid-log phase were incubated with either H20 only or C-POD suspended in H20 at concentrations ranging from 0.03 μM to 60 μM, and cell number was determined by plating samples on LB agar. […] Greater concentrations of C-POD completely eliminated bacterial growth.
# [2] = tested on: human embryonic retinoblast (HER) cells; experiment: Localization of de novo synthesized POD-GFP after plasmid transfection; type: cell-based; details: transfection with pPODGFPHis or pGFPHis
# Description: Human embryonic retinoblast (HER) cells were cultured using previously described methods [Fallaux F J et al. 1996 Hum. Gene Ther. 7: 215-222]. Carcinoma human alveolar basal epithelial cells (A549, American Type Culture Collection, Manassas, Va.) were grown to 70-80% confluence in DMEM media supplemented with 10% fetal bovine serum (FBS). All cell culture procedures were performed in DMEM supplemented with 2% FBS. Transfection of plasmids was carried out using 2:1 μL Lipofectamine: μg plasmid in Opti-MEM media. Forty-eight hours post-transfection, the cells were fixed and stained with DAPI, 4′,6-diamidino-2-phenylindole.
# Transfection of human embryonic retinoblast (HER) cells [Fallaux F J et al. 1996 Hum. […] Furthermore, POD-GFP appeared to concentrate in sub nuclear compartments (FIG. 7 panel B, arrowheads).
# HER cells [3] = experiment: POD-GFP protein transduction in vitro, GFP-positive cells by FACS and localization; type: cell-based, human; details: for GFP-positive cells: HER, 10 μg protein, 2 hours
# Description: (§1) To evaluate cellular penetration of POD fusion proteins, HER cells were seeded on Lab Tek-II chamber slides and incubated with 10 μg of POD-GFP or GFP for two hours. Following fixation, cells were visualized by light and fluorescence microscopy using an Olympus BX51 microscope with differential interference contrast (DIC) and the appropriate fluorescence filters. Images were captured using a Retiga 2000R FAST camera and QCapture Pro 5.0 (QImaging, British Columbia, Canada). To quantitate protein uptake, 0.2×10^6 of either HER or A549 cells were incubated with 10 μg POD-GFP or GFP for 2 hours. Cells were washed with PBS, pelleted and resuspended in PBS for FACS analysis. Cell membrane integrity was evaluated by measuring the percentage of Propidium Iodide (1 μM) positive cells in the presence of fusion protein. FACS analysis of protein uptake and toxicity was performed using a FACSCAlibur (Becton Dickinson, Franklin. Lakes, N.J.) and results analyzed using CellQuest Pro (Becton Dickinson). 10,000 events were counted for each analysis, which was performed in triplicate and repeated at least once.
# HER and A549 cells were treated as above for subsequent addition of LysoTracker, ER Tracker (Molecular Probes, Carlsbad, Calif.), or DAPI, and were incubated for one hour. These reagents were removed and cells were fixed with formalin for imaging.
# To determine the transduction capabilities of POD-GFP in vitro, each of approximately 0.2×10^6 human lung carcinoma epithelial cells (A549) or HER cells were incubated with 10 μg of each of purified recombinant POD-GFP or control GFP protein for 2 hours and the number of GFP-positive cells were counted by FACS. […] Similarly, 34.2±3.4% and 1.8±0.4%, respectively, of HER cells were GFP-positive when incubated with POD-GFP or GFP, respectively (FIG. 9 panel A).
# In contrast to endogenous gene expression, POD-GFP in the Example herein appeared in the cytoplasm of HER cells in a punctate pattern (FIG. 9 panel B), similar to observations in examples above with L-POD peptide and similar to that of an endocytic mechanism of uptake.
# HER cells [4] = experiment: Toxicity during protein transduction, propidium iodide uptake; type: cell-based, human; details: HER cells incubated with protein
# Description: as §1
# Extent of toxicity to cells during protein transduction was measured by uptake of propidium iodide (PI).
# skin = experiment: Topical application of POD-GFP to shaved skin in vivo; design: species or system C57BL6/J mice; details: 40 μg; for GFP-fluorescence in skin: 24 hours
# Description: Adult mice were anesthetized as described above and the abdomen shaved to reveal a 2.25 cm^2 area of skin. A dose of 40 μg of protein was applied to the skin for 24 hours. Upon completion of the treatment, animals were sacrificed and the treated skin dissected and fixed overnight in 4% paraformaldehyde and transverse sections were obtained as described herein.
# To extend these observations to other organ systems, the potential of transdermal delivery of POD-fusion protein was examined. POD-GFP (40 μg) or control OFF was topically applied to shaved skin of adult C57BL6/J mice. Animals were sacrificed 24 hours later and frozen sections of the treated region were examined by fluorescence microscopy.
# [5] = tested on: human lung carcinoma epithelial cells (A549); experiment: POD-GFP protein transduction in vitro, GFP-positive cells by FACS; type: cell-based; details: A549, 10 μg protein, 2 hours
# Description: as §1, with “once. […]” for “once.”
# retina = experiment: Subretinal / intravitreal injection of POD-GFP protein in vivo; design: species or system C57BL/6J mice
# Description: (§2) Subretinal and intravitreal injections of the fusion proteins were performed using techniques described in Cashman et al. [2006 Invest Opthalmol Vis Sci 47:3496-3504]. Briefly, 8.5 μg of POD-GFP or 6.6 μg of GFP protein was injected into the subretinal or intravitreal space respectively, of 6-8 week old C57BL/6J mice. Four independent injections were performed and yielded nearly identical results. Six hours post-injection, mice were sacrificed by CO2 inhalation and cervical dislocation. For topical delivery of the POD-GFPHis or GFP-His, C57BL/6J mice were anesthetized with xylazine/ketamine and 2 μl containing 40 μg of protein were dropped onto the […] surface. Forty-five minutes following administration, mice were sacrificed as above and eyes enucleated, washed twice in PBS, and fixed overnight in 4% paraformaldehyde. Eyes were embedded in Optimal Cutting Temperature Compound (Sakura Finetek, Torrance, Calif.) and 14 μm sections were collected using a Microm 550 cryostat.
# To determine the transduction properties of POD-GFP […] an amount of 8.5 μg of each of purified POD-GFP or control GFP protein was injected into the subretinal space, i.e., between the retinal pigment epithelium (RPE) and photoreceptors, of 6 week-old male C57BL61J mice. Eyes were harvested after 6 hours and frozen sections were examined by fluorescence microscopy.
# Purified POD-GFP, 6.6 μg, or that amount of control GFP protein was injected into the intravitreal space, i.e. between the lens and neural retina of 6 week-old male C57BL6/J mice, and eyes were harvested after 6 hours and frozen sections examined by fluorescence microscopy. […] Unlike with subretinal injection, no POD-GFP signal was detectable in the outer nuclear layer or RPE beyond that of background auto-fluorescence and the overall number of GFP-positive cells was less than that achieved by subretinal injection.
# cornea = experiment: Topical application of POD-GFP to cornea in vivo; design: species or system C57BL6/J mouse; details: 40 μg, 45 minutes
# Description: as §2, with “Eyes were embedded in Optimal Cutting Temperature Compound (Sakura Finetek, Torrance, Calif.) and 14 μm sections were collected using a Microm 550 cryostat.” left out
# To further examine localization of POD-GFP, anterior ocular tissues were dissected and the corneas were flat mounted or cross-sectioned and re-examined by fluorescence microscopy. […] In contrast, GFP-fluorescence was readily detected on both flat mounts and cross sections of corneas from mice that received topical application of POD-GFP (FIG. 12 panel B). […] No GFP-signal was detected in corneal cross-sections prepared from mice that received topical application of control GFP.
Substance,GFP-positive cells (HER cells [1]) [%],concentration giving almost complete inhibition of bacterial growth (E. coli) [µM],concentration giving significant inhibition of bacterial growth (E. coli) [µM],localization of expressed protein [2],GFP-positive cells (HER cells [3]) [%],PI-positive cells (HER cells [4]) [%],GFP-fluorescence in skin (skin),GFP-positive cells [5] [%],"detection in retina by fluorescence microscopy (retina; intravitreal, 6.6 μg, 6 hours)","detection in retina by fluorescence microscopy (retina; subretinal, 8.5 μg, 6 hours)",presence on outer surface of the eye (cornea),cellular localization of exogenously added protein (HER cells [3]; HER cells),duration of binding to mouse skin (skin),binding to lens capsule (retina; intravitreal injection),"transduction of the ONL, share of the retinal surface (retina; subretinal, 8.5 μg, 6 hours)"
CGGG(ARKKAAKA)4 (CGGGARKKAAKAARKKAAKAARKKAAKAARKKAAKA; The peptide was designed and synthesized) [C-POD],49.13±2.23,24.0,0.30,–,–,–,–,–,–,–,–,–,–,–,–
GFP: His-tagged GFP control protein [reference compound],–,–,–,relatively diffuse cytoplasmic and nuclear localization,1.8±0.4,3.2±2.7,Only minimal GFP-fluorescence,1.4±0.4,not detected in retinal cells above background auto-fluorescence,barely discernible above background auto-fluorescence,washed away,–,–,–,–
POD-GFP: His-tagged POD-GFP fusion protein,–,–,–,relatively weak cytoplasmic and intense nuclear localization,34.2±3.4,2.8±3.8,significantly GFP-positive,35.3±0.9,readily detected in ganglion cells,abundantly present in the outer nuclear layer,detected on most of the ocular surface,colocalize in part with Lysotracker,at least 24 hours,very strong affinity,up to 40%
